The test system of one data set is HeLa culture. Description: Metaphase block stages in stained tissue cultures. It counts as cell-based. The procedure:
The test compounds were dissolved in the tissue cultures (HeLa culture) in concentrations ranging from the threshold dose of 1×10^-3 μg./ml. up to 100 μg./ml. In 24-hour cultures, by in vivo microscopic evaluation of the metaphase-arresting affect the following results were obtained.
Under similar conditions but using stained tissue cultures slight differences could be observed which can be classified as follows:
The first stage (minimal effective dose) is characterized by an increased ratio of blocked mitoses. A part is abnormal mitoses, for example three-group mitosis or polar chromosomes also occur. Generally the anaphases have already disappeared.
In the second stage a strong metaphase blocking is observed and practically there is no regulare mitosis present. Chromosomes are in the form of a loose glomus. The proportion of interphase cells is low.
In the third stage the chromosomas are aggregated in a mass in the middle of the cell. This state is called picnomitosis of "Ball-Metaphase".
In the fourth stage already the interphase cells are influenced. More particularly, the number of the blocked cells is decreased since they are not able to take part in mitosis. The cytoplasm of the cells (in interphase) is extended, its border is irregular, "fringy", the cells frequently have an elongated, fibroplast-like shape.
Finally, in the fifth stage the cytoplasm is filled in by a fine, reticular structure and the interphase cell has unambiguously been killed by the treatment.

In another data set the test system is P 388 mouse leukaemia. The experiment in a line: P 388 leukaemia test (life span of i.p. transplanted mice). In kind it is in vivo, BDF hybrid mice. The procedure:
(§1) The effect of the new compounds on intraperitoneally transplantable tumors (P 388 mouse leukaemia and NK/Ly ascites lymphoma) is described hereinbelow. The P 388 leukaemia test was performed on BDF hybrid mice. The tests were carried out on groups of six mice and 10^6 tumor cells/animal were transplanted intraperitoneally. Administration of the test compounds was started in the 24th hour after transplantation. Treatment was performed intraperitoneally and the body weight and state of animals was controlled every day. The effect obtained on the treated animals is expressed in % of the mean length of life of the control group, given in days.

In another data set the test system is NK/Ly ascites lymphoma. The experiment in a line: NK/Ly ascites tumour test (survival and tumor-free animals). In kind it is in vivo, Swiss-H/Riop outbred mice. The note with it: 5 × 4.0 mg./kg. i.p. The procedure: as §1
Into groups of ten Swiss-H/Riop outbred mice from our own breed 5×10^6 ascites tumour cells were transplanted intraperitoneally. In the 24th hour after transplantation treatment was started and the compounds were administered daily, altogether five times. The mean length of life of the control group amounted to 15.7 days.

The nature of data set [1]: Acute toxicity in mice (i.p., Lichfield and Wilcoxon), with paralytic side effect. In kind it is in vivo, male Swiss mice. The procedure: The acute toxicity of the compounds according to the invention was tested on male Swiss mice weighing 27 to 31 g. The tests were carried out on groups of six mice. Test compounds were administered intraperitoneally, as injectable solutions prepared with physiological saline solution and optionally one drop of Tween 80.

Broadly, the LD50 is the dose expected to kill half of the subjects tested. Higher therefore signals a less toxic substance. Regarding `CCC1(O)CC2CN(CCc3c([nH]c4ccccc34)C(C(=O)OC)(c3cc4c(cc3OC)N(COCC(C)C)C3C(O)(C(=O)OC)C(OC(C)=O)C5(CC)C=CCN6CCC43C65)C2)C1` (stereo not shown) [N-Desmethyl-N-(isobutoxymethyl)-vinblastine], the relative effectiveness entry in the data set on HeLa culture is recorded as “an order of a magnitude lower effect”. The “effect on mitosis at lowest dose” value in the data set with HeLa culture (0.001 μg./ml.) is recorded as “regular mitoses could still be observed”. Moreover, the “Mean length of life, treated” value in the data set on P 388 mouse leukaemia (8 × 0.4 mg./kg. i.p.) stood at 13.7 days. Further, the “Mean length of life, treated” value in the data set on P 388 mouse leukaemia (8 × 4.0 mg./kg. i.p.) worked out at 20.0 days. The “Mean length of life, treated” value in the data set with P 388 mouse leukaemia (8 × 8.0 mg./kg. i.p.) was found to be 20.5 days. The response vs control in vivo at 0.4 mg/kg with P 388 mouse leukaemia (Mus musculus, P388, ip, mean length of life, 8 × 0.4 mg./kg. i.p., read-out: Treated/Control) was 133%. Further, in the data set with P 388 mouse leukaemia (Mus musculus, P388, ip, mean length of life, 8 × 4.0 mg./kg. i.p., read-out: Treated/Control), the response vs control in vivo at 4 mg/kg was determined as 194%. For the same compound, the response vs control in vivo at 8 mg/kg in the data set on P 388 mouse leukaemia (Mus musculus, P388, ip, mean length of life, 8 × 8.0 mg./kg. i.p., read-out: Treated/Control) worked out at 208%. For the same compound, in the data set on NK/Ly ascites lymphoma, the alive is listed as 10/10, the “on the 25th day tumor-free” value was 10/10 and the “on the 30th day tumor-free” value is given as 7/10. In addition, the LD50 in data set [1] (mouse, in vivo, ip) was about 60 mg/kg. Further, the Paralytic side effect in data set [1] (symbols 0 / + not defined) was determined as 0.

For the origin of these results see US4410459A, “Process for preparation of cytostatic compounds” (priority 1980, dated 1983).
